# In patent publication US20240228987A1, “HEXOKINASE-DERIVED PEPTIDES AND THERAPEUTICAL USES THEREOF” (INSERM (INSTITUT NATIONAL DE LA SANTÉ ET DE LA RECHERCHE …, priority 2021, published 2024):
# Where a SMILES comes first, the peptide text is derived from it. Where no end group is shown, it is not given here. [ ]: non-standard residue; d: D form. The star is where a group is joined. X1 = CC(C)(C(=O)*)n1cc(-c2cccc(C(F)(F)F)c2)nn1; Nle = CCCC[C@H](N)C(=O)O; Aib = CC(C)(N)C(=O)O
# Assays:
# VDAC = target: T1, VDAC (Homo sapiens, UniProt P21796); assay: in-cellulo screening assay: HEK-293 cells transfected with mitoGCaMP2, MJ-induced mitochondrial Ca2+ release through VDAC; format: cell-based; details: for activity / affinity for VDAC on the screening assay (mitoGCaMP2 fluorescence): MJ 6 mM
# T1 construct: HEK-293 cells, expressing VDAC and HK; endogenous in cells; host or cells: HEK-293 (ATCC), transfected only with the Ca2+ probes mitoGCaMP2 / GCaMP2
# Procedure: The activity of the designed compounds was assessed on HEK-293 cells transfected with mitoGCaMP2. 40,000 cells per well were seeded in 96-well-microplates coated with Poly-D-Lysine (reference 655946, Greiner Bio-One, France) in 200 μl of DMEM supplemented with 10% FBS and 1% PS. 24 h after seeding, cells were transfected with 50 ng of mitoGCaMP2 plasmid per well using jet-PRIME reagent (Polyplus-transfection S.A, France) according to the manufacturer's recommendations. 48 h after transfection, a first measure of fluorescence was performed using the microplate reader CLARIOstar® (BMG Labtech, France). This measurement represented the basal level of Ca2+ into the mitochondria upon transfection. After a wash with 100 μl of PBS, cells were incubated with a mixture of pre-heated (37° C.) MJ at a final concentration of 6 mM and compounds at the indicated final concentrations in PBS containing 0.1% DMSO and 5% EtOH. After 35 min in a cell incubator, a second measure of fluorescence was performed using the microplate reader CLARIOstar®. This measure represented the level of mitochondrial Ca2+ according to the peptide activity. Compounds were tested in triplicates per microplates and in three or five independent experiments for each peptide. For dose effect curves, compounds were tested in triplicates per microplates and in three independent experiments. Results are expressed as the ratio between the second and first measures and normalized to the conditions without compounds containing only PBS with 0.1% DMSO and 5% EtOH. Results are expressed as the means±SD in histogram plots and dose response curves using GraphPad Prism software (version 8.0.1).
# The biological screening of the peptide is based on the ability of methyl jasmonate (MJ) to binds and detaches HK-1 from mitochondrial VDAC in a time and dose dependent manner.^16,20 For this purpose, we developed an in-cellulo screening assay in which HEK-293 cells, expressing VDAC and HK,25 were transfected with GCaMP2, a cytoplasmic Ca2+-sensing probe, or with mitoGCaMP2, the same probe addressed to mitochondrial matrix. […] MJ that removes HK from VDAC was used to induce a Ca2+ release outside mitochondria measured through a drop in mitoGCaMP2 fluorescence and an increase in GCaMP2 fluorescence in cells.
# [1] = in-vitro metabolic stability in rat serum; format: in vitro ADME; details: 25% (v/v) rat serum
# Procedure: FIG. 10: Study of the stability of NHKI derived sequence (3c′, 7a′, 7d′, 7f′-g′) towards rat serum (N=3 independent experiments). All peptides were tested at a concentration of 66.6 μmol/L in presence of 25% (v/v) of rat serum and water after incubation at 37° C. for 24 h. Errors bars show the standard deviation.
# For each peptide, a stock solution in DMSO was prepared at a 6.66 mmol/L concentration. 70 μL of the solution were taken out and added to 630 μL of MilliQ water to make an aqueous peptide solution (0.666 mmol/L). The reaction consisted in 325 μL of MilliQ water and 125 μL of non-diluted rat serum pre-incubated at 37° C. for about 10-15 min before addition of 50 μL the peptide solution at 0.666 mmol/L. The mixture was incubated at 37° C. with shaking at 1000 rpm. Aliquots (25 μL) were taken at different time points (0 min, 5 min, 15 min, 30 min, 1h, 2h, 3h, 5h, 7h, 24h, 48h) and enzymatic reaction was quenched with 225p L of MeOH to precipitate all serum proteins. The Eppendorf tube was directly centrifuged (14000 rpm) for 20 min at 4° C. to remove precipitated proteins by pelleting.
# sciatic nerve explants = assay: sciatic nerve explant culture and CARS imaging (demyelination); format: cell-based, mouse; details: 3 μM
# Description: FIG. 11: Effects of NHKI-derived peptides 3c, 5x, 7d and 7g on sciatic nerve explants cultured in medium supplemented with serum. (A) Representative CARS images showing myelin (green) of an intact sciatic nerve collected and immediately fixed in 4% PFA and a sciatic nerve explant cultured in medium supplemented with FBS referred as negative control. (B) Representative CARS images showing myelin (green) of sciatic nerve explants cultured in medium supplemented with FBS containing NHKI-derived peptides at 3 μM for 24 h. All nerves are represented in longitudinal sections. Healthy myelin sheath (white arrows), Node of Ranvier (white stars) and myelin ovoids (orange arrows) are illustrated. Scale bar: 20 μm. (C) Graph showing the percentage of damaged fibers in intact nerves (white plot), negative controls (light grey plot), 3c and its analog 7d (blue plots) 5x and its analog 7g (red plots). (N=3 independent experiments). Results are expressed as means±SD. Statistical analysis using one-way ANOVA followed by Dunnett's multiple comparison tests. *p<0.05, **p<0.01. ns, non-significant.
# Twelve-week-old C57BL6/J mice were euthanized using Pentobarbital (54.7 mg/ml, 100 mg/kg, Centravet, France). First, sciatic nerves were collected, washed in PBS and their epineurium was removed. Next, 5 mm long nerves were put in 24-well microplates (NUNC, Thermo Fisher Scientific, France) in 500 μl of DMEM supplemented with 1% PS and with or without 10% FBS containing the compounds at 3 μM containing 0.1% DMSO, and further incubated in a humidified chamber at 37° C. and 5% CO2. Negative controls consisted in sciatic nerve explant cultures without compounds (only DMEM supplemented with 1% PS, with or without 10% FBS and 0.1% DMSO). Intact sciatic nerves collected and immediately fixed in 4% PFA served as a control of healthy myelin sheath for CARS imaging. After 24 h in culture, sciatic nerve explants were washed three times with PBS and fixed for 1 h in 4% PFA aqueous solution (Electron Microscopy Sciences, Thermo Fisher Scientific, France) at room temperature. All CARS images were acquired with a two-photon microscope LSM 7 MP coupled to an OPO (Zeiss, France) complemented by a delay line. A ×20 water immersion objective (W Plan Apochromat DIC VIS-IR, Zeiss, France) was used for image acquisition. Each acquisition was conducted in three independent experiments. For each experiment, three ROIs per conditions were used to quantify the percentage of damaged fibers per field using Zen software (Zen 2.3 lite, Zeiss, France). Results are expressed as means±SD.
# Next, we tested NHKI-derived compound activity on sciatic nerve explant cultures in which Schwann cells demyelinate through a mechanism involving mitochondrial Ca2+ release through VDAC1.44,45,9 Intact myelin was imaged and quantified in sciatic nerve explants using Coherent Anti-Stokes Raman Scattering (CARS) nonlinear microscopy. […] Demyelination was quantified by measuring the percentage of damaged fibers, i.e. displaying ovoid formation, over the total number of fibers imaged.
# [2] = target: Elastase (from porcine pancreas, EC 3.4.21.36) (Sus scrofa, UniProt P00772); details: Tris·HCl buffer pH 8, 37° C., peptides without Tat
# Procedure: A stock solution of Elastase at 1 mg/mL was prepared in Tris·HCl buffer (50 mM, pH 8, containing 0.5 mM CaCl2,). The stock solution was diluted at 0.94 mg/mL with 658 μL of stock solution in 42 μL of Tris·HCl buffer. All peptides were dissolved in DMSO to prepare a 6.66 mmol/L stock solution. A more diluted peptide solution (0.666 mmol/L) was prepared with 70 μL of stock solution in 630 μL of Tris·HCl buffer pH 8. In a 1.5 mL Eppendorf, 890 μL of Tris·HCl pH 8 was introduced followed by 100 μL of peptide solution (0.666 mmol/L) and incubated for 15 min at 37° C. prior to degradation. Then, 10 μL of Elastase solution (0.94 mg/mL) was added. The reaction mixture was incubated up to 4h at 37° C. with shaking at 1000 rpm. Aliquots (50 μL) were taken at different time points, quenched with 450 μL of MeOH, and centrifuged for 20 min (14000 rpm) at 4° C. The supernatant was transferred into an injection vial and analyzed by LC-MS with an eluting program of 0.1% formic acid in water and 0.1% formic acid in acetonitrile (see analytical data section). The relative concentrations of the remaining peptides and the cleavage products were calculated by integration of the corresponding peak in the HPLC chromatogram/MS trace. A control peptide solution was prepared without the enzyme. […] All proteolytic degradation experiments were carried out in triplicate.
# Schwann cells = details: cited from earlier work
# [3] = compounds at 3 μM, compared with 3c, 4d or 5x
# [4] = 24 h, medium supplemented with serum
# Sequence of Elastase (from porcine pancreas, EC 3.4.21.36) (P00772 27-266): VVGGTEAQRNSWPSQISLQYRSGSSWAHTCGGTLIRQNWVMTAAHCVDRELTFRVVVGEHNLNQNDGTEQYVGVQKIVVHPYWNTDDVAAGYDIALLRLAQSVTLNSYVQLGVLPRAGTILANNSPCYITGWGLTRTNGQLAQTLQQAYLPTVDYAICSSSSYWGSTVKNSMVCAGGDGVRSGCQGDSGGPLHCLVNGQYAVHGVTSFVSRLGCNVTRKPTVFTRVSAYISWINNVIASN
# T1 sequence (P21796 2-283): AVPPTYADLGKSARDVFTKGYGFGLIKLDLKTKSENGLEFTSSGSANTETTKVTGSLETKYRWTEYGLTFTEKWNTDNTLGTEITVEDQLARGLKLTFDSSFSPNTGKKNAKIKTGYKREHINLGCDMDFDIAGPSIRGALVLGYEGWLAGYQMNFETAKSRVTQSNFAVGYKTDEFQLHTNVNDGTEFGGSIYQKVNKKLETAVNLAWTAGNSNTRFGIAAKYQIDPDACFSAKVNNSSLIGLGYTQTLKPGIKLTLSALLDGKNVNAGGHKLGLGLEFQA
compound,measurement,setting,value
"AQWLAYYYTELK [5m, tested peptide also contains Tat]",activity / affinity for VDAC on the screening assay (mitoGCaMP2 fluorescence),VDAC; [3],equally accommodated
CCCC[C@H](NC(=O)[C@H](CCC(N)=O)NC(=O)[C@@H]1CCCN1C(=O)[C@@H]1CCCN1C(=O)[C@H](CCCNC(=N)N)NC(=O)[C@H](CCCNC(=N)N)NC(=O)[C@H](CCCNC(=N)N)NC(=O)[C@H](CCC(N)=O)NC(=O)[C@H](CCCNC(=N)N)NC(=O)[C@H](CCCNC(=N)N)NC(=O)[C@H](CCCCN)NC(=O)[C@H](CCCCN)NC(=O)[C@H](CCCNC(=N)N)NC(=O)CNC(C)=O)C(=O)N[C@H](C(=O)N[C@@H](C)C(=O)N[C@@H](C)C(=O)N[C@@H](CCC(N)=O)C(=O)N[C@@H](CC(C)C)C(=O)N[C@@H](CC(C)C)C(=O)N[C@@H](C)C(=O)N[C@@H](Cc1ccc(O)cc1)C(=O)N[C@@H](Cc1ccc(O)cc1)C(=O)N[C@@H](Cc1ccccc1)C(=O)N[C@H](C(=O)N[C@@H](CCC(=O)O)C(=O)N[C@@H](CC(C)C)C(=O)N[C@@H](CCCCN)C(N)=O)[C@@H](C)O)[C@@H](C)CC [2a],IC50,VDAC,13.9 ± 3.1 µM
[Nle]IAAQWWAYYL [6q],activity / affinity for VDAC on the screening assay (mitoGCaMP2 fluorescence),VDAC; [3],more significant
Ac-AQLLAYYFTELKGRKKRRQRRRPPQ-NH2 [3c],"remaining at 5 min, 66.6 µmol/L","[1]; 25% rat serum, after 5 min, preliminary experiment, read-out: remaining peptide in rat serum",10%
same,percentage of damaged fibers,"sciatic nerve explants; 24h, serum-free medium",same percentage of damaged fibers as the negative control
[Nle]IAAQLWAYYY [6o],activity / affinity for VDAC on the screening assay (mitoGCaMP2 fluorescence),VDAC; [3],equally accommodated
"AQWLAYYLTELK [5l, tested peptide also contains Tat]",activity / affinity for VDAC on the screening assay (mitoGCaMP2 fluorescence),VDAC; [3],beneficial effect
"AQWWAYYFTEWK [5x, tested peptide also contains Tat]",percentage of damaged fibers,"sciatic nerve explants; 24h, serum-free medium",significantly reduced the level of damaged fibers
same,activity / affinity for VDAC on the screening assay (mitoGCaMP2 fluorescence),VDAC; [3],more significant
C[C@H](NC(=O)[C@H](Cc1c[nH]c2ccccc12)NC(=O)[C@H](Cc1c[nH]c2ccccc12)NC(=O)[C@H](CCC(N)=O)NC(=O)[C@H](C)NC(=O)C(C)(C)n1cc(-c2cccc(C(F)(F)F)c2)nn1)C(=O)N[C@@H](Cc1ccc(O)cc1)C(=O)N[C@@H](Cc1ccc(O)cc1)C(=O)N[C@@H](Cc1ccccc1)C(=O)N[C@H](C(=O)N[C@@H](CCC(=O)O)C(=O)N[C@@H](Cc1c[nH]c2ccccc12)C(=O)N[C@@H](CCCCN)C(=O)NCC(=O)N[C@@H](CCCNC(=N)N)C(=O)N[C@@H](CCCCN)C(=O)N[C@@H](CCCCN)C(=O)N[C@@H](CCCNC(=N)N)C(=O)N[C@@H](CCCNC(=N)N)C(=O)N[C@@H](CCC(N)=O)C(=O)N[C@@H](CCCNC(=N)N)C(=O)N[C@@H](CCCNC(=N)N)C(=O)N[C@@H](CCCNC(=N)N)C(=O)N1CCC[C@H]1C(=O)N1CCC[C@H]1C(=O)N[C@@H](CCC(N)=O)C(N)=O)[C@@H](C)O [7f] (X1-AQWWAYYFTEWKGRKKRRQRRRPPQ-NH2),IC50,VDAC,2.6 ± 0.6 µM
same,stability towards elastase,[2],most stable compound
"AQLWAYYYTEWK [5t, tested peptide also contains Tat]",activity / affinity for VDAC on the screening assay (mitoGCaMP2 fluorescence),VDAC; [3],beneficial effect
CC(C)CCC[C@@H](C)[C@H]1CC[C@H]2[C@@H]3CCC4=CC(=NO)CC[C@]4(C)[C@H]3CC[C@]12C [olesoxime],demyelination,Schwann cells,block demyelination
same,mitochondrial calcium release,Schwann cells,prevent mitochondrial calcium release
[Nle]IAAQWLAYYY [6m],activity / affinity for VDAC on the screening assay (mitoGCaMP2 fluorescence),VDAC; [3],equally accommodated
C[C@H](NC(=O)C(C)(C)n1cc(-c2cccc(C(F)(F)F)c2)nn1)C(=O)N[C@@H](CCC(N)=O)C(=O)N[C@@H](Cc1c[nH]c2ccccc12)C(=O)N[C@@H](Cc1c[nH]c2ccccc12)C(=O)NC(C)(C)C(=O)N[C@@H](Cc1ccc(O)cc1)C(=O)N[C@@H](Cc1ccc(O)cc1)C(=O)N[C@@H](Cc1ccccc1)C(=O)N[C@H](C(=O)N[C@@H](CCC(=O)O)C(=O)N[C@@H](Cc1c[nH]c2ccccc12)C(=O)N[C@@H](CCCCN)C(=O)NCC(=O)N[C@@H](CCCNC(=N)N)C(=O)N[C@@H](CCCCN)C(=O)N[C@@H](CCCCN)C(=O)N[C@@H](CCCNC(=N)N)C(=O)N[C@@H](CCCNC(=N)N)C(=O)N[C@@H](CCC(N)=O)C(=O)N[C@@H](CCCNC(=N)N)C(=O)N[C@@H](CCCNC(=N)N)C(=O)N[C@@H](CCCNC(=N)N)C(=O)N1CCC[C@H]1C(=O)N1CCC[C@H]1C(=O)N[C@@H](CCC(N)=O)C(N)=O)[C@@H](C)O [7g] (X1-AQWW[Aib]YYFTEWKGRKKRRQRRRPPQ-NH2; N-terminus assumed),nerve fibers damage,sciatic nerve explants; [4],significantly decreased nerve fibers damage
same,preservation of the myelin sheath,sciatic nerve explants; [4],significantly preserve the myelin sheath at a similar level to an intact nerve
same,myelin sheath pattern,"sciatic nerve explants; 24h, serum-free medium",same myelin sheath pattern as an intact nerve
same,percentage of damaged fibers,"sciatic nerve explants; 24h, serum-free medium",significantly reduced the level of damaged fibers
same,activity / affinity for VDAC on the screening assay (mitoGCaMP2 fluorescence),VDAC; [3],significant higher activity
same,activity / affinity for VDAC on the screening assay (mitoGCaMP2 fluorescence),VDAC; compounds at 10 μM,significantly more active than compounds 3c and 5x
CC(=O)N[C@@H](C)C(=O)NC(C)(C)C(=O)N[C@@H](C)C(=O)NC(C)(C)C(=O)N[C@@H](C)C(=O)N[C@@H](CCC(N)=O)C(=O)N[C@@H](CC(C)C)C(=O)N[C@@H](CC(C)C)C(=O)NC(C)(C)C(=O)N[C@@H](Cc1ccc(O)cc1)C(=O)N[C@@H](Cc1ccc(O)cc1)C(=O)N[C@@H](Cc1ccccc1)C(=O)N[C@H](C(=O)N[C@@H](CCC(=O)O)C(=O)N[C@@H](CC(C)C)C(=O)N[C@@H](CCCCN)C(N)=O)[C@@H](C)O [7d′] (Ac-A[Aib]A[Aib]AQLL[Aib]YYFTELK-NH2; N-terminus and C-terminus assumed),stability towards elastase,[2],improve their stability towards elastase
CC(=O)N[C@@H](C)C(=O)N[C@@H](CCC(N)=O)C(=O)N[C@@H](CC(C)C)C(=O)N[C@@H](CC(C)C)C(=O)NC(C)(C)C(=O)N[C@@H](Cc1ccc(O)cc1)C(=O)N[C@@H](Cc1ccc(O)cc1)C(=O)N[C@@H](Cc1ccccc1)C(=O)N[C@H](C(=O)N[C@@H](CCC(=O)O)C(=O)N[C@@H](CC(C)C)C(=O)N[C@@H](CCCCN)C(N)=O)[C@@H](C)O [7a′] (Ac-AQLL[Aib]YYFTELK-NH2; N-terminus and C-terminus assumed),"remaining at 24 h, 66.6 µmol/L","[1]; 37° C., after 24 h, read-out: remaining compound in rat serum",~65%
same,stability towards elastase,[2],improve their stability towards elastase
